Measured values reported in ChEMBL document CHEMBL4359817 (J Med Chem, 2019).
≈ marks a conversion by molar mass, not a printed value. Values belong to the compound of their own block, whether it stands above or below them.

Assays:
[1] = Thermodynamic aqueous solubility of the compound at pH 7.4; format: physicochemical; settings: read-out: Therm_solubility
[2] = Lipophilicity, log D of the compound at pH 7.4; format: physicochemical; settings: buffer
[3] = Intrinsic clearance in human microsomes; format: ADME, Microsome
[4] = Intrinsic clearance in rat hepatocytes assessed per million cells; format: ADME, cell-based, Hepatocyte; settings: read-out: CLH
[5] = Volume of distribution at steady state in iv or po dosed Han Wistar rat; format: ADME, organism-based; settings: in vivo, read-out: Vdss
[6] = Oral bioavailability in Han Wistar rat; format: ADME, organism-based; settings: in vivo
[7] = Intrinsic clearance in human hepatocytes assessed per million cells; format: ADME, cell-based, Hepatocyte; settings: read-out: CLH
[8] = Clearance in iv or po dosed Han Wistar rat; format: ADME, organism-based; settings: in vivo
[9] = Volume of distribution at steady state in Han Wistar rat at 2 mg/kg, po or 0.5 mg/kg, iv; format: ADME, organism-based; settings: in vivo, read-out: Vdss
[10] = Oral bioavailability in Han Wistar rat at 2 mg/kg; format: ADME, organism-based; settings: in vivo
[11] = Clearance in Han Wistar rat at 2 mg/kg, po or 0.5 mg/kg, iv; format: ADME, organism-based; settings: in vivo
[12] = Clearance in CD1 mouse at 100 mg/kg, po; format: ADME, organism-based; settings: in vivo
[13] = Time at which plasma concentration stays above in vitro GI50 for antiproliferative activity against human NCI-H1703 cells in SCID mouse at 100 mg/kg, po; format: organism-based; settings: in vivo
[14] = Thermodynamic aqueous solubility of the compound at pH 7.4 using amorphous form of sample; format: physicochemical; settings: read-out: Therm_solubility
[15] = Time at which plasma concentration stays above in vitro fGI50 for antiproliferative activity against human NCI-H1703 cells in SCID mouse at 100 mg/kg, po administered twice daily; format: organism-based; settings: in vivo
[16] = Time at which plasma concentration stays above in vitro fGI50 for antiproliferative activity against human NCI-H1703 cells in SCID mouse at 100 mg/kg, po; format: organism-based; settings: in vivo
[17] = Clearance in dog at 1 mg/kg, po or 0.5 mg/kg, iv; format: ADME, organism-based, Canis lupus familiaris; settings: in vivo
[18] = Oral bioavailability in dog at 1 mg/kg; format: ADME, organism-based, Canis lupus familiaris; settings: in vivo
[19] = Time at which plasma concentration stays above in vitro fGI50 for antiproliferative activity against human NCI-H1703 cells in nude mouse at 100 mg/kg, po; format: organism-based; settings: in vivo
[20] = Drug level in SCID mouse plasma xenografted with human NCI-H1703 cells at 100 mg/kg, po administered once daily via gavage for 21 days measured 4 hrs post-last dose; format: ADME, organism-based
[21] = Drug level in SCID mouse plasma xenografted with human NCI-H1703 cells at 100 mg/kg, po administered once daily via gavage for 21 days measured 24 hrs post-last dose; format: ADME, organism-based
[22] = Thermodynamic aqueous solubility of the compound at pH 7.4 using crystalline form of sample; format: physicochemical; settings: read-out: Therm_solubility
[23] = Drug level in SCID mouse plasma xenografted with human NCI-H1703 cells assessed as free fraction at 100 mg/kg, po administered once daily via gavage for 21 days measured 24 hrs post-last dose; format: ADME, organism-based; settings: in vivo
[24] = Drug level in SCID mouse plasma xenografted with human NCI-H1703 cells assessed as free fraction at 100 mg/kg, po administered once daily via gavage for 21 days measured 4 hrs post-last dose; format: ADME, organism-based; settings: in vivo
[25] = Volume of distribution at steady state in dog at 1 mg/kg, po or 0.5 mg/kg, iv; format: ADME, organism-based, Canis lupus familiaris; settings: in vivo, read-out: Vdss
[26] = Oral bioavailability in Han Wistar rat at 1 mg/kg; format: ADME, organism-based; settings: in vivo
[27] = Volume of distribution at steady state in Han Wistar rat at 1 mg/kg, po or 0.5 mg/kg, iv; format: ADME, organism-based; settings: in vivo, read-out: Vdss
[28] = Clearance in Han Wistar rat at 1 mg/kg, po or 0.5 mg/kg, iv; format: ADME, organism-based; settings: in vivo

solubility thermodynamic [1]: < 0.6 µM
logD ([2]; read-out: logD): 3.6
Compound: O=C(Cc1ccccc1)Nc1nnc(CCCc2nnc(NC(=O)Cc3ccccc3)s2)s1

solubility thermodynamic [1]: > 228 µM
logD ([2]; read-out: logD): 2.2
microsomal CLint [3]: 3 µL/min/mg
Compound: O=C(NCc1ccccc1)c1nnc(N[C@@H]2CCN(c3nccnn3)C2)s1

solubility thermodynamic [1]: < 0.4 µM
Compound: O=C(Cc1ccccc1)Nc1nnc(CCCCc2nnc(NC(=O)Cc3ccccc3)s2)s1

solubility thermodynamic [1]: 20 µM (≈ 11.4 µg/mL)
logD ([2]; read-out: logD): 2.7
Compound: CC(=O)N1CCCCC1CC(=O)Nc1nnc(N2CC[C@@H](Nc3nnc(NC(=O)Cc4ccccc4)s3)C2)s1 (some centres undefined)

hepatocyte CLint [4]: 30.2 µL/min/1e6 cells
Vd [5]: 3 L/kg
bioavailability [6]: 32%
logD [2]: 3.9
hepatocyte CLint [7]: 8 µL/min/1e6 cells
clearance [8]: 14 mL/min/kg
microsomal CLint [3]: 15 µL/min/mg
Compound: O=C(Cc1cccc(OC(F)(F)F)c1)Nc1ccc(CCCCc2nnc(NC(=O)Cc3ccccn3)s2)nn1

solubility thermodynamic [1]: 5 µM (≈ 2.01 µg/mL)
logD ([2]; read-out: logD): 1.8
Compound: Nc1nnc(N[C@@H]2CCN(c3nnc(NC(=O)Cc4ccccc4)s3)C2)s1

solubility thermodynamic [1]: < 1 µM
logD ([2]; read-out: logD): 3.5
Compound: CN(CCN(C)c1nnc(NC(=O)Cc2ccccc2)s1)c1nnc(NC(=O)Cc2ccccc2)s1

solubility thermodynamic [1]: < 0.6 µM
Compound: O=C(Cc1ccccc1)Nc1nnc(CCCCCc2nnc(NC(=O)Cc3ccccc3)s2)s1

solubility thermodynamic [1]: 94 µM (≈ 36 µg/mL)
hepatocyte CLint [4]: 5 µL/min/1e6 cells
Vd [9]: 2 L/kg
logD ([2]; read-out: logD): 2.06
bioavailability [10]: 83%
clearance [11]: 54 mL/min/kg
microsomal CLint [3]: < 3 µL/min/mg
Compound: O=C(Cc1ccccc1)Nc1nnc(N[C@@H]2CCN(c3nccnn3)C2)s1

solubility thermodynamic [1]: 95 µM (≈ 38.2 µg/mL)
logD ([2]; read-out: logD): 1.9
Compound: Nc1nnc(N2CC[C@@H](Nc3nnc(NC(=O)Cc4ccccc4)s3)C2)s1

solubility thermodynamic [1]: 14 µM (≈ 5.34 µg/mL)
hepatocyte CLint [4]: 2 µL/min/1e6 cells
Vd [5]: 1.6 L/kg
bioavailability [6]: 2%
CL/F [12]: 101 mL/min/kg
logD ([2]; read-out: logD): 2.2
hepatocyte CLint [7]: < 1 µL/min/1e6 cells
clearance [8]: 50 mL/min/kg
microsomal CLint [3]: 3 µL/min/mg
Compound: O=C(Cc1ccccc1)Nc1nnc(N[C@@H]2CCN(c3cccnn3)C2)s1
Time [13]: 10 h

solubility thermodynamic [1]: 130 µM (≈ 50.4 µg/mL)
logD ([2]; read-out: logD): 2.1
Compound: O=C(Cc1ccccc1)Nc1nnc(N[C@@H]2CCN(c3nncs3)C2)s1

hepatocyte CLint [4]: 8.7 µL/min/1e6 cells
Vd [5]: 1.9 L/kg
bioavailability [6]: 0%
solubility thermodynamic [14]: 329 µM (≈ 130 µg/mL)
logD ([2]; read-out: logD): 2.6
clearance [8]: 55 mL/min/kg
microsomal CLint [3]: < 3 µL/min/mg
Compound: C[C@H](C(=O)Nc1nnc(N[C@@H]2CCN(c3cccnn3)C2)s1)c1ccccc1
Time [15]: 24 h
Time [16]: 15 h

hepatocyte CLint [4]: 4.1 µL/min/1e6 cells
Vd [5]: 0.6 L/kg
clearance [17]: 1 mL/min/kg
bioavailability [6]: 41%
solubility thermodynamic [14]: 516 µM (≈ 213 µg/mL)
logD ([2]; read-out: logD): 1.7
bioavailability [18]: 90%
hepatocyte CLint [7]: 3 µL/min/1e6 cells
clearance [8]: 12 mL/min/kg
microsomal CLint [3]: 3 µL/min/mg
Compound: CO[C@H](C(=O)Nc1nnc(N[C@@H]2CCN(c3nccnn3)C2)s1)c1ccccc1
Time [19]: 24 h

hepatocyte CLint [4]: 4.6 µL/min/1e6 cells
Vd [5]: 2.4 L/kg
clearance [17]: 4 mL/min/kg
bioavailability [6]: 47%
logD ([2]; read-out: logD): 1.9
bioavailability [18]: 60%
concentration at 4 h [20]: 3.57 µM
concentration at 24 h [21]: 3.63 µM
solubility thermodynamic [22]: 78 µM (≈ 32.1 µg/mL)
hepatocyte CLint [7]: < 1 µL/min/1e6 cells
Cp(f) [23]: 0.592 µM
clearance [8]: 35 mL/min/kg
Cp(f) [24]: 0.582 µM
Vd [25]: 0.3 L/kg
microsomal CLint [3]: < 3 µL/min/mg
Compound: CO[C@H](C(=O)Nc1nnc(N[C@@H]2CCN(c3cccnn3)C2)s1)c1ccccc1
Time [16]: 24 h

solubility thermodynamic [1]: 10 µM (≈ 5.29 µg/mL)
logD ([2]; read-out: logD): 3.2
Compound: O=C(Cc1ccccc1)Nc1nnc(N[C@@H]2CCN(c3nnc(NC(=O)CC4CCOCC4)s3)C2)s1

solubility thermodynamic [1]: < 0.8 µM
logD ([2]; read-out: logD): 3.8
Compound: O=C(Cc1ccccc1)Nc1nnc(N[C@@H]2CCN(c3nnc(NC(=O)Cc4ccccc4)s3)C2)s1

solubility thermodynamic [1]: 150 µM (≈ 81.3 µg/mL)
logD ([2]; read-out: logD): 1.3
Compound: CN1CCC(CC(=O)Nc2nnc(N3CC[C@@H](Nc4nnc(NC(=O)Cc5ccccc5)s4)C3)s2)CC1

solubility thermodynamic [1]: > 559 µM
bioavailability [26]: 12%
hepatocyte CLint [4]: 31 µL/min/1e6 cells
Vd [27]: 2.7 L/kg
logD ([2]; read-out: logD): 2.24
microsomal CLint [3]: < 3 µL/min/mg
clearance [28]: 100 mL/min/kg
Compound: O=C(NCc1ccccc1)c1nnc(N[C@@H]2CCN(c3cccnn3)C2)s1

solubility thermodynamic [1]: < 0.8 µM
logD ([2]; read-out: logD): > 4.2
Compound: O=C(Cc1ccccc1)Nc1nnc(NC[C@H]2CCN(c3nnc(NC(=O)Cc4ccccc4)s3)C2)s1

solubility thermodynamic [1]: 3 µM (≈ 1.33 µg/mL)
logD ([2]; read-out: logD): 2.5
Compound: CC(=O)Nc1nnc(N2CC[C@@H](Nc3nnc(NC(=O)Cc4ccccc4)s3)C2)s1

logD ([2]; read-out: logD): > 4
Compound: O=C(Cc1ccccc1)Nc1nnc(CCSCCc2nnc(NC(=O)Cc3ccccc3)s2)s1

solubility thermodynamic [1]: 20 µM (≈ 7.93 µg/mL)
logD ([2]; read-out: logD): 0.85
Compound: Nc1nnc(N[C@@H]2CCN(c3ccc(NC(=O)Cc4ccccc4)nn3)C2)s1

logD ([2]; read-out: logD): 4.3
Compound: O=C(Cc1ccccc1)Nc1nnc(N[C@@H]2CCC[C@H]2Nc2nnc(NC(=O)Cc3ccccc3)s2)s1

solubility thermodynamic [1]: < 3 µM
Compound: O=C(Cc1ccccc1)Nc1nnc(NCCNc2nnc(NC(=O)Cc3ccccc3)s2)s1
